Results: ChEMBL document CHEMBL1124625, “Flavones. 2. Synthesis and structure-activity relationship of flavodilol and its analogues, a novel class of antihypertensive agents with catecholamine depleting properties” (J Med Chem, 1989)
One block for each compound: values may come before it. Active and inactive are the calls of the source. No cut-off for these calls is given here.

Columns and labels:
Rattus norvegicus [1] = assay: % decrease in heart norepinephrine in anesthetized spontaneously hypertensive rats(SHR) at 7 hours after administration of 150 mg/kg dose perorally;; type: functional; details: route oral
Rattus norvegicus [2] = assay: % decrease in adrenal epinephrine in anesthetized spontaneously hypertensive rats(SHR) at 7 hours after administration of 150 mg/kg dose perorally; type: functional; details: route oral
Rattus norvegicus [3] = assay: % decrease in heart norepinephrine in anesthetized spontaneously hypertensive rats(SHR) at 1 hours after administration of 150 mg/kg dose perorally; type: functional; details: route oral
Rattus norvegicus [4] = assay: % decrease in brain norepinephrine in anesthetized spontaneously hypertensive rats(SHR) at 24 hours after administration of 35 mg/kg dose perorally; type: functional; details: route oral
Rattus norvegicus [5] = assay: % decrease in adrenal epinephrine in anesthetized spontaneously hypertensive rats(SHR) at 1 hours after administration of 150 mg/kg dose perorally; type: functional; details: route oral
Rattus norvegicus [6] = assay: % decrease in adrenal epinephrine in anesthetized spontaneously hypertensive rats(SHR) at 24 hours after administration of 35 mg/kg dose perorally; type: functional; details: route oral
Rattus norvegicus [7] = assay: % decrease in heart norepinephrine in anesthetized spontaneously hypertensive rats(SHR) at 3 hours after administration of 150 mg/kg dose perorally; type: functional; details: route oral
Rattus norvegicus [8] = assay: % decrease in brain norepinephrine in anesthetized spontaneously hypertensive rats(SHR) at 7 hours after administration of 150 mg/kg dose perorally; type: functional; details: route oral
Rattus norvegicus [9] = assay: % decrease in brain norepinephrine in anesthetized spontaneously hypertensive rats(SHR) at 24 hours after administration of 150 mg/kg dose perorally; type: functional; details: route oral
Rattus norvegicus [10] = assay: % decrease in brain norepinephrine in anesthetized spontaneously hypertensive rats(SHR) at 3 hours after administration of 150 mg/kg dose perorally; type: functional; details: route oral
Rattus norvegicus [11] = assay: % decrease in brain norepinephrine in anesthetized spontaneously hypertensive rats(SHR) at 1 hours after administration of 150 mg/kg dose perorally; type: functional; details: route oral
Rattus norvegicus [12] = assay: % decrease in systolic blood pressure (SBP) in anesthetized spontaneously hypertensive rats(SHR) after administration of 150 mg/kg dose perorally; details: route oral
Rattus norvegicus [13] = assay: % decrease in heart norepinephrine in anesthetized spontaneously hypertensive rats(SHR) at 24 hours after administration of 75 mg/kg dose perorally; type: functional; details: route oral
Rattus norvegicus [14] = assay: % decrease in heart norepinephrine in anesthetized spontaneously hypertensive rats(SHR) at 24 hours after administration of 150 mg/kg dose perorally; type: functional; details: route oral
Rattus norvegicus [15] = assay: Systolic blood pressure (SBP) in anesthetized spontaneously hypertensive rats(SHR) at 7.5 hours after administration of 17 mg/kg dose, perorally; percentage falls in systolic blood pressure were not statistically signific ant; type: functional, organism-based; design: dose 17 mg/kg; details: Artery
Rattus norvegicus [16] = assay: Systolic blood pressure (SBP) in anesthetized spontaneously hypertensive rats (SHR) before administration of 75 mg/kg dose perorally.; type: functional; design: unit: mmHg; details: route oral
Rattus norvegicus [17] = assay: % decrease in systolic blood pressure (SBP) in anesthetized spontaneously hypertensive rats(SHR) after administration of 75 mg/kg dose perorally; details: route oral
Rattus norvegicus [18] = assay: Systolic blood pressure (SBP) in anesthetized spontaneously hypertensive rats(SHR) at 7.5 hours after administration of 35 mg/kg dose perorally; type: functional; details: route oral
Rattus norvegicus [19] = assay: % decrease in heart norepinephrine in anesthetized spontaneously hypertensive rats(SHR) at 24 hours after administration of 35 mg/kg dose perorally; value significantly different was control; type: functional; details: route oral
Rattus norvegicus [20] = assay: % decrease in adrenal epinephrine in anesthetized spontaneously hypertensive rats(SHR) at 3 hours after administration of 150 mg/kg dose perorally; type: functional; details: route oral
Rattus norvegicus [21] = assay: % decrease in brain norepinephrine in anesthetized spontaneously hypertensive rats(SHR) at 24 hours after administration of 75 mg/kg dose perorally; type: functional; details: route oral
Rattus norvegicus [22] = assay: % decrease in adrenal epinephrine in anesthetized spontaneously hypertensive rats(SHR) at 24 hours after administration of 75 mg/kg dose perorally; type: functional; details: route oral
Rattus norvegicus [23] = assay: Systolic blood pressure (SBP) in anesthetized spontaneously hypertensive rats(SHR) before administration of 17 mg/kg dose perorally; type: functional; details: route oral
Cavia porcellus = species on record: Cavia porcellus; assay: Inhibition of the isoproterenol response at a dose of 1 x 10e -4M in guinea pig; slight inhibition was found; type: functional, organism-based
Rattus norvegicus [24] = assay: Systolic blood pressure (SBP) in anesthetized spontaneously hypertensive rats(SHR) at 7.5 hours after administration of 75 mg/kg dose perorally; type: functional; details: route oral
Adrenergic receptor beta = Adrenergic receptor beta (Rattus norvegicus, UniProt P18090+P10608+P26255)
Description: Inhibition constant from beta adrenergic receptor binding assay

Rattus norvegicus [25] = assay: % decrease in adrenal epinephrine in anesthetized spontaneously hypertensive rats(SHR) at 24 hours after administration of 150 mg/kg dose perorally; type: functional; details: route oral
Rattus norvegicus [26] = assay: Systolic blood pressure (SBP) in anesthetized spontaneously hypertensive rats(SHR) at 7.5 hours after administration of 65 mg/kg dose perorally; NS is not statistically significant.
Rattus norvegicus [27] = assay: Systolic blood pressure (SBP) in anesthetized spontaneously hypertensive rats(SHR) before administration of 65 mg/kg dose perorally; type: functional; details: route oral

Ki (Adrenergic receptor beta): 12 µM
SMILES: CC(C)NCC(O)COc1ccc2c(=O)cc(-c3ccccc3)oc2c1 (centres undefined)
Decrease (Rattus norvegicus [1]): 100% | Decrease (Rattus norvegicus [2]): 16% | Decrease (Rattus norvegicus [3]): 40% | Decrease (Rattus norvegicus [4]): -4% | Decrease (Rattus norvegicus [5]): 10% | Decrease (Rattus norvegicus [6]): 17% | Decrease (Rattus norvegicus [7]): 71% | Decrease (Rattus norvegicus [8]): 10% | Decrease (Rattus norvegicus [9]): 14% | Decrease (Rattus norvegicus [10]): 2% | Decrease (Rattus norvegicus [11]): 0% | % decrease SBP (Rattus norvegicus [12]): 33% | Decrease (Rattus norvegicus [13]): 100% | Decrease (Rattus norvegicus [14]): 100% | Decrease in Systolic blood pressure (Rattus norvegicus [15]): inactive | Systolic blood pressure (Rattus norvegicus [16]): 208 | % decrease SBP (Rattus norvegicus [17]): 16% | Decrease in Systolic blood pressure (Rattus norvegicus [18]): 21% | Decrease (Rattus norvegicus [19]): 57% | Decrease (Rattus norvegicus [20]): 4% | Decrease (Rattus norvegicus [21]): 2% | Decrease (Rattus norvegicus [22]): 23% | Systolic blood pressure (Rattus norvegicus [23]): 203 | Activity (Cavia porcellus): Weak activity | Decrease in Systolic blood pressure (Rattus norvegicus [24]): 27% | Decrease (Rattus norvegicus [25]): 39%

SMILES: CC(C)NCC(O)COc1ccc2c(=O)cc(-c3ccc(N)cc3)oc2c1 (centres undefined)
Decrease in Systolic blood pressure (Rattus norvegicus [26]): Not significant | Systolic blood pressure (Rattus norvegicus [27]): 206
